The term Kd denotes a measure of binding affinity in units of concentration.

Consider one molecule from article PMC9802118, “C25-modified rifamycin derivatives with improved activity against Mycobacterium abscessus” (PNAS Nexus, 2022).

The target in one test is T1, ArrMab (Mycobacteroides abscessus, UniProt B1MH05).
T1 construct: gene MAB_0591; purified wild-type enzyme, N-terminal His6 tag cleaved with C3 protease
In words: ITC (also nanoDSF; rpTLC ADP-ribosylation). Format: binding. Background: DSF heats the sample and reads unfolding from a dye or from intrinsic fluorescence.

Another test deals with T2, ArrMsm (Mycolicibacterium smegmatis, UniProt A0QRS5).
T2 construct: gene MSMEG_1221; purified wild-type enzyme, N-terminal His6 tag cleaved with C3 protease
Briefly: ITC (also nanoDSF; rpTLC ADP-ribosylation). It counts as binding.

T1 sequence (B1MH05 entry or part of it): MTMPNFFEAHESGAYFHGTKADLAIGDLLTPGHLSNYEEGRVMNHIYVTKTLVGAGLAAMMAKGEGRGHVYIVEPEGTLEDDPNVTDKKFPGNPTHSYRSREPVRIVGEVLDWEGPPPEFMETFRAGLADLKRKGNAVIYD
T2 sequence (A0QRS5 entry or part of it): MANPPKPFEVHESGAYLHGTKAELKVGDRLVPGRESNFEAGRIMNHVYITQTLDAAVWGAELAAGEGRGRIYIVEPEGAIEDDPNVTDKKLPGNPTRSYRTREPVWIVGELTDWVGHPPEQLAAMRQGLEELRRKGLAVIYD

Consider `CO[C@H]1/C=C/O[C@@]2(C)Oc3c(C)c(O)c4c(O)c(c(/C=N/N5CCN(C)CC5)c(O)c4c3C2=O)NC(=O)/C(C)=C\C=C\[C@H](C)[C@H](O)[C@@H](C)[C@@H](O)[C@@H](C)[C@H](OC(C)=O)[C@@H]1C` [RMP, Rifampicin], for which the Kd on ArrMab was 4800 ± 3 nM; on ArrMsm, 290 ± 20 nM.
